Measurements as given in PubChem BioAssay (NCI).
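A five-concentration, 48-hour dose response in 96-well plates underlies each endpoint, interpolated linearly between surrounding concentrations. GI50: concentration for 50% inhibition of growth. TGI is the concentration that stops growth completely.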

Tests used:
Assay in all cases: NCI anticancer screen, dose series, 48 h
HCT-116 colon = system: HCT-116 colon
786-0 renal = system: 786-0 renal
SF-268 CNS = system: SF-268 CNS
PC-3 prostate = system: PC-3 prostate
SN12C renal = system: SN12C renal
DU-145 prostate = system: DU-145 prostate
MOLT-4 leukemia = system: MOLT-4 leukemia
SK-OV-3 ovarian = system: SK-OV-3 ovarian
NCI-H226 lung = system: NCI-H226 lung
M14 melanoma = system: M14 melanoma
A549 NSCLC = system: A549 NSCLC
LOX IMVI melanoma = system: LOX IMVI melanoma
CCRF-CEM leukemia = system: CCRF-CEM leukemia
UO-31 renal = system: UO-31 renal
NCI-H460 lung = system: NCI-H460 lung
HL-60(TB) leukemia = system: HL-60(TB) leukemia
NCI/ADR-RES ovarian = system: NCI/ADR-RES ovarian
NCI-H522 lung = system: NCI-H522 lung
EKVX NSCLC = system: EKVX NSCLC
T-47D breast = system: T-47D breast
SK-MEL-28 melanoma = system: SK-MEL-28 melanoma
UACC-62 melanoma = system: UACC-62 melanoma
IGROV1 ovarian = system: IGROV1 ovarian
ACHN renal = system: ACHN renal
OVCAR-5 ovarian = system: OVCAR-5 ovarian
MALME-3M melanoma = system: MALME-3M melanoma
KM12 colon = system: KM12 colon
SK-MEL-2 melanoma = system: SK-MEL-2 melanoma
RXF 393 renal = system: RXF 393 renal
SNB-75 CNS = system: SNB-75 CNS
MDA-MB-231 breast = system: MDA-MB-231 breast
RPMI-8226 leukemia = system: RPMI-8226 leukemia
SF-295 CNS = system: SF-295 CNS
MCF7 breast = system: MCF7 breast
CAKI-1 renal = system: CAKI-1 renal
COLO 205 colon = system: COLO 205 colon
HT29 colon = system: HT29 colon
HOP-62 NSCLC = system: HOP-62 NSCLC
SF-539 CNS = system: SF-539 CNS
MDA-MB-435 = system: MDA-MB-435
OVCAR-4 ovarian = system: OVCAR-4 ovarian
OVCAR-8 ovarian = system: OVCAR-8 ovarian
U251 CNS = system: U251 CNS
K-562 leukemia = system: K-562 leukemia
OVCAR-3 ovarian = system: OVCAR-3 ovarian
HOP-92 NSCLC = system: HOP-92 NSCLC
HCT-15 colon = system: HCT-15 colon
HCC-2998 colon = system: HCC-2998 colon
SNB-19 CNS = system: SNB-19 CNS
A498 renal = system: A498 renal
TK-10 renal = system: TK-10 renal
NCI-H23 lung = system: NCI-H23 lung
BT-549 breast = system: BT-549 breast
HS 578T breast = system: HS 578T breast
SW-620 colon = system: SW-620 colon
SK-MEL-5 melanoma = system: SK-MEL-5 melanoma
UACC-257 melanoma = system: UACC-257 melanoma

For CCOC(=O)CCc1c(C(=O)OCC)[nH]c(/C=C2\NC(=O)C(C)=C2CC)c1C, the TGI (HCT-116 colon) was over 100000 nM, the TGI (786-0 renal) was 27500 nM and the TGI (SF-268 CNS) was 92100 nM. The TGI (PC-3 prostate) was 63300 nM, the TGI (SN12C renal) was over 100000 nM and the TGI (DU-145 prostate) was 55600 nM. The TGI (MOLT-4 leukemia) was over 100000 nM, the TGI (SK-OV-3 ovarian) was 48300 nM and the TGI (NCI-H226 lung) was over 100000 nM. The TGI (M14 melanoma) was over 100000 nM, the TGI (A549 NSCLC) was over 100000 nM and the TGI (LOX IMVI melanoma) was over 100000 nM. It also gave a TGI (CCRF-CEM leukemia) of over 100000 nM, a TGI (UO-31 renal) of over 100000 nM and a TGI (NCI-H460 lung) of over 100000 nM. The TGI (HL-60(TB) leukemia) was over 100000 nM, the TGI (NCI/ADR-RES ovarian) was 32400 nM and the TGI (NCI-H522 lung) was 30700 nM. For the same molecule, the TGI (EKVX NSCLC) was 50300 nM, the TGI (T-47D breast) was 26000 nM and the TGI (SK-MEL-28 melanoma) was over 100000 nM. It also gave a TGI (UACC-62 melanoma) of 44900 nM, a TGI (IGROV1 ovarian) of 23700 nM and a TGI (ACHN renal) of 41200 nM. For the same molecule, the TGI (OVCAR-5 ovarian) was 86300 nM, the TGI (MALME-3M melanoma) was 41100 nM and the TGI (KM12 colon) was over 100000 nM. For the same molecule, the TGI (SK-MEL-2 melanoma) was 42500 nM, the TGI (RXF 393 renal) was 49000 nM and the TGI (SNB-75 CNS) was 27800 nM. It also gave a TGI (MDA-MB-231 breast) of 52600 nM, a TGI (RPMI-8226 leukemia) of over 100000 nM and a TGI (SF-295 CNS) of 41300 nM. The TGI (MCF7 breast) was over 100000 nM, the TGI (CAKI-1 renal) was 78700 nM and the TGI (COLO 205 colon) was over 100000 nM. The TGI (HT29 colon) was over 100000 nM, the TGI (HOP-62 NSCLC) was 27600 nM and the TGI (SF-539 CNS) was 69600 nM. It also gave a TGI (MDA-MB-435) of over 100000 nM, a TGI (OVCAR-4 ovarian) of 59400 nM and a TGI (OVCAR-8 ovarian) of 18900 nM. The TGI (U251 CNS) was 33900 nM, the TGI (K-562 leukemia) was over 100000 nM and the TGI (OVCAR-3 ovarian) was 49600 nM. The TGI (HOP-92 NSCLC) was 45100 nM and the TGI (HCT-15 colon) was over 100000 nM.
In the case of COc1ccc(C(O)c2cc3c(N)c(C(=O)Nc4cccc(Cl)c4C)sc3nc2C)cc1 (stereo not drawn), the GI50 (786-0 renal) is reported as 786 nM, the TGI (786-0 renal) is reported as 1530 nM and the GI50 (SF-268 CNS) is reported as 808 nM. The TGI (SF-268 CNS) was 1680 nM, the GI50 (HCC-2998 colon) was 444 nM and the TGI (HCC-2998 colon) was 1160 nM. It also gave a GI50 (PC-3 prostate) of 768 nM, a TGI (PC-3 prostate) of 1630 nM and a GI50 (SN12C renal) of 815 nM. It also gave a TGI (SN12C renal) of 1610 nM, a GI50 (DU-145 prostate) of 929 nM and a TGI (DU-145 prostate) of 1850 nM. For the same molecule, the GI50 (MOLT-4 leukemia) was 846 nM, the TGI (MOLT-4 leukemia) was 2130 nM and the GI50 (SK-OV-3 ovarian) was 988 nM. It also gave a TGI (SK-OV-3 ovarian) of 2090 nM, a GI50 (SNB-19 CNS) of 943 nM and a TGI (SNB-19 CNS) of 1920 nM. It also gave a GI50 (NCI-H226 lung) of 1040 nM, a TGI (NCI-H226 lung) of 3150 nM and a GI50 (A498 renal) of 761 nM. It also gave a TGI (A498 renal) of 1630 nM, a GI50 (M14 melanoma) of 872 nM and a TGI (M14 melanoma) of 1780 nM. For the same molecule, the GI50 (A549 NSCLC) was 933 nM, the TGI (A549 NSCLC) was 2020 nM and the GI50 (LOX IMVI melanoma) was 838 nM. For the same molecule, the TGI (LOX IMVI melanoma) was 1550 nM, the GI50 (CCRF-CEM leukemia) was 733 nM and the TGI (CCRF-CEM leukemia) was 1930 nM. For the same molecule, the GI50 (TK-10 renal) was 871 nM, the TGI (TK-10 renal) was 1800 nM and the GI50 (UO-31 renal) was 627 nM. For the same molecule, the TGI (UO-31 renal) was 1270 nM, the GI50 (NCI-H460 lung) was 834 nM and the TGI (NCI-H460 lung) was 1730 nM. For the same molecule, the GI50 (HL-60(TB) leukemia) was 877 nM, the TGI (HL-60(TB) leukemia) was 2140 nM and the GI50 (NCI/ADR-RES ovarian) was 915 nM. It also gave a TGI (NCI/ADR-RES ovarian) of 1840 nM, a GI50 (NCI-H23 lung) of 926 nM and a TGI (NCI-H23 lung) of 1800 nM. For the same molecule, the GI50 (EKVX NSCLC) was 886 nM, the TGI (EKVX NSCLC) was 2160 nM and the GI50 (T-47D breast) was 953 nM. The TGI (T-47D breast) was 2200 nM, the GI50 (SK-MEL-28 melanoma) was 854 nM and the TGI (SK-MEL-28 melanoma) was 1580 nM. It also gave a GI50 (UACC-62 melanoma) of 896 nM, a TGI (UACC-62 melanoma) of 1670 nM and a GI50 (BT-549 breast) of 888 nM. It also gave a TGI (BT-549 breast) of 1770 nM, a GI50 (IGROV1 ovarian) of 687 nM and a TGI (IGROV1 ovarian) of 1440 nM. For the same molecule, the GI50 (ACHN renal) was 877 nM, the TGI (ACHN renal) was 1630 nM and the GI50 (OVCAR-5 ovarian) was 932 nM. For the same molecule, the TGI (OVCAR-5 ovarian) was 1920 nM, the GI50 (MALME-3M melanoma) was 809 nM and the TGI (MALME-3M melanoma) was 1510 nM. It also gave a GI50 (KM12 colon) of 865 nM, a TGI (KM12 colon) of 1680 nM and a GI50 (SK-MEL-2 melanoma) of 909 nM. For the same molecule, the TGI (SK-MEL-2 melanoma) was 1840 nM, the GI50 (RXF 393 renal) was 709 nM and the TGI (RXF 393 renal) was 1420 nM. It also gave a GI50 (HS 578T breast) of 774 nM, a TGI (HS 578T breast) of 1790 nM and a GI50 (SW-620 colon) of 831 nM. It also gave a TGI (SW-620 colon) of 1650 nM, a GI50 (SNB-75 CNS) of 637 nM and a TGI (SNB-75 CNS) of 1340 nM. For the same molecule, the GI50 (SK-MEL-5 melanoma) was 874 nM, the TGI (SK-MEL-5 melanoma) was 1580 nM and the GI50 (MDA-MB-231 breast) was 781 nM. For the same molecule, the TGI (MDA-MB-231 breast) was 1570 nM, the GI50 (RPMI-8226 leukemia) was 681 nM and the TGI (RPMI-8226 leukemia) was 1850 nM. It also gave a GI50 (SF-295 CNS) of 881 nM, a TGI (SF-295 CNS) of 1660 nM and a GI50 (MCF7 breast) of 569 nM. For the same molecule, the TGI (MCF7 breast) was 1240 nM, the GI50 (CAKI-1 renal) was 689 nM and the TGI (CAKI-1 renal) was 1380 nM. It also gave a GI50 (HT29 colon) of 768 nM, a TGI (HT29 colon) of 1720 nM and a GI50 (SF-539 CNS) of 818 nM. The TGI (SF-539 CNS) was 1540 nM, the GI50 (MDA-MB-435) was 825 nM and the TGI (MDA-MB-435) was 1560 nM. It also gave a GI50 (OVCAR-4 ovarian) of 782 nM, a TGI (OVCAR-4 ovarian) of 2000 nM and a GI50 (OVCAR-8 ovarian) of 948 nM. For the same molecule, the TGI (OVCAR-8 ovarian) was 2170 nM, the GI50 (UACC-257 melanoma) was 1000 nM and the TGI (UACC-257 melanoma) was 2020 nM. It also gave a GI50 (U251 CNS) of 797 nM, a TGI (U251 CNS) of 1570 nM and a GI50 (K-562 leukemia) of 198 nM. For the same molecule, the TGI (K-562 leukemia) was 1450 nM, the GI50 (OVCAR-3 ovarian) was 814 nM and the TGI (OVCAR-3 ovarian) was 1790 nM. For the same molecule, the GI50 (HOP-92 NSCLC) was 618 nM, the TGI (HOP-92 NSCLC) was 1680 nM and the GI50 (HCT-15 colon) was 623 nM. The TGI (HCT-15 colon) was 1330 nM.
